US20190290656A1, “PT(IV) PRODRUGS” (YISSUM RESEARCH DEVELOPMENT COMPANY OF THE HEBREW …, priority 2015, published 2019)

How the values were obtained:
[1] = system: A2780cisR cells; experiment: MTT cytotoxicity assay, A2780cisR (cisplatin resistant); type: cell-based, human; conditions: A2780cisR, 72 h exposure, MTT; read-out: IC50 (median growth inhibitory concentration)
Procedure, shortened: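 Platinum(IV) complexes from fresh DMSO stocks, final 0.5% DMSO in medium; cisplatin and oxaliplatin dissolved fresh in 0.9% NaCl. A2780, cisplatin-resistant A2780cisR and A498 cells tested by MTT in triplicate cultures.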

[2] = system: PC3 cells; experiment: MTT cytotoxicity assay, PC3; type: cell-based, human; conditions: PC3, 72 h exposure, read-out: IC50 (median growth inhibitory concentration)
Method: Cisplatin (CDDP) and oxaliplatin (OXP) were dissolved just before the experiment in a 0.9% NaCl solution.
Human prostate adenocarcinoma (PC3) cells were obtained from European Collection of Cell Cultures (ECACC, Salisbury, UK). Human ovarian cancer cell lines A2780 and its cisplatin resistant variant, A2780cisR, were kindly provided by Prof.
Triplicate cultures were established for each treatment.

[3] = system: PSN-1 cells; experiment: Glycolysis (Mito-ID O2 sensor), PSN-1; type: cell-based, human; conditions: IC50 concentrations, 24 h
Method: Glycolysis. The cellular glycolytic activity was assessed using the Mito-ID® O2 Extracellular Sensor Kit according to the manufacturer's instructions (Enzo Life Sciences, Farmingdale, N.Y.). Briefly, PSN-1 cells (15·10^3 per well) were seeded in 96-well plates. After 24 h, cells were treated with Mito-ID® O2 Sensor Probe Solution containing the tested compounds at the appropriate concentration. Fluorescence was estimated using a plate reader (Fluoroskan Ascent FL, Labsystem, Finland) at 350 nm (excitation) and 610 nm (emission).
Based on the above findings, we investigated the effects determined by derivatives 3a and 3b on 2008 and PSN-1 cancer cell aerobic glycolysis and mitochondria function.
However, these effects were magnified in PSN-1 cells, having reduction of cellular glycolytic activity of about 36 and 20% for 3a and 3b, respectively. […] This latter result could be explained tacking into consideration that the reference compound [Pt(DACH)(56Phen)] itself, that is also released upon reduction of 3a and 3b, is effective in hampering cellular glycolysis in both tested cancer cell lines. The difference between 3a and 3b might be attributed to the added effect of DCA.

[4] = system: six human cancer cell lines; experiment: MTT cytotoxicity, over six human cancer cell lines; type: cell-based; conditions: on average over tested cell lines
Method: MTT assay. […] Triplicate cultures were established for each treatment.
The two dimers, 3a and 3b, as well as compounds 1a and 2a were screened against six human cancer cell lines representative of lung (H157), colon (HCT-15), cervical (A431), ovarian (2008) and pancreatic (PSN1) cancers, along with melanoma (A375). Cytotoxicity was evaluated by means of the MTT test after 72 h of treatment and the in vitro antitumor potential of newly synthesized derivatives was compared to that of the reference metallo-drugs CDDP and OXP.

[5] = system: PSN-1 cells; experiment: Mitochondrial membrane potential (Mito-ID), PSN-1; type: cell-based, human; conditions: 12 h of incubation
Method: Mitochondrial membrane potential (ΔΨ). ΔΨ was assayed using the Mito-ID Membrane Potential Kit according to the manufacturer's instructions (Enzo Life Sciences, Farmingdale, N.Y.). Briefly, 2008 and PSN1 cells were seeded onto 96-well microplates at 5.10^4 cells/well. After 24 h, cells were treated with tested compounds for 6, 12 and 24 h. The mitochondrial depolarizing agent, carbonyl cyanide 3-chlorophenylhydrazone (CCCP) was employed as positive control. An equal volume of cationic dye loading solution was added to each well and cell plates were incubated for additional 30 min at 37° C. Plates were read at excitation/emission wavelengths 490 and 590 nm using a fluorescence microplate reader (Fluoroskan Ascent FL, Labsystem, Finland).
In addition, it is interesting to note that treatment of 2008 and PSN-1 cells with 3a and 3b determined a significant time-dependent increase in the number of cells with depolarized mitochondria (data not shown). In particular, after 12 h of incubation, 3a elicited an increase of about 39% of PSN-1 cells with depolarized mitochondrial potential FIG. 12B). Again, the reference compound [Pt(DACH)(56Phen)] was effective in hampering cellular mitochondrial membrane potential in both tested cancer cell lines.

[6] = Cyclic voltammetric measurements; type: physicochemical; conditions: cyclic voltammetry
Method: Finally, units 1a and 2a (Scheme 4) were used for the formation of a peptide bond, to afford 3a. DMSO turned out to be a good solvent for this reaction, although DMF also afforded good results. ^1H NMR assignments for 1a, 2a, and 3a (Scheme 4) are summarized in Table 4. Cylic voltammetric measurements (CV) were performed on complex 3a and 3b finding Ep values of −0.462 and −0.058 V. The first reduction peak was assigned to the reduction of the cisplatin-derivative portion of the dinuclear complex, because of similarity with the values reported for similar complexes. The less negative reduction peak was assigned to the Pt-Phenantroline metal center, because of similarity to the values reported for the bis axial phenylbutyrato Pt(IV) complex Pt56MeSS(PhB)2.

[7] = Reduction in buffer in the presence of ascorbic acid; type: physicochemical; conditions: 1 Eq ascorbic acid, phosphate buffer, RT, 2 hours
Method: A solution 2.0 mM of 3a (Scheme 4) in buffer was treated with 1 Eq ascorbic acid. NMR measurements were performed over a 2 hour time frame.
In order to assay which of the two Pt metal centers of 3a is more prone to be reduced, we added 1 Eq of ascorbic acid to a solution of 3a in phosphate buffer. […] Finally, we carried out the reaction at RT and not at 37° C. to avoid a fast reduction process that would have made more complicated its study.
The reaction was monitored by ^1H NMR spectroscopy (FIG. 9). Already after 2 min, time needed to prepare the sample and start the NMR experiment, besides the signals belonging to 3a, previously discussed, it was possible to note the signal belonging to [Pt(DACH)(56Phen)]^2+, free phenyl butyric acid and a signal at 6.34 ppm, consistent with a DCA moiety coordinated to a Pt(IV) metal center. These signals indicated the reduction of the phenanthroline-bonded Pt unit of 3a to [Pt(DACH)(56Phen)]^2+, and the release of the axial ligands, […] and c,c,t-[Pt(NH3)2(DCA)(OOCCH2CH2CH2NHCOCH2CH2COOH)] (5). We were not able to isolate the latter species. […] The reaction was monitored for about 2 hours. In FIG. 9 are reported the spectra recorded after 9, 21 and 59 min. In the second hour, no changes were detected.

## [NH2][Pt]([NH2])([Cl])[Cl] [CDDP, Cisplatin, reference compound]
[1]
  IC50: 13.8 ± 0.2 µM
[2]
  IC50: 2.25 ± 0.82 µM

## c,c,t,t,c,c-[(DACH)(56Phen)(PhBu)Pt(μ-OOC—(CH2)2—CONH(CH2)3COO)—Pt(DCA)(NH3)2 (Cl2)](TFA)2 [Compound 3a]
[3]
  reduction of cellular glycolytic activity: about 36%
[4]
  times more potent than compound 3b: about 12 fold
[5]
  increase of cells with depolarized mitochondrial potential: about 39%
[6]
  Ep, first reduction peak (cisplatin-derivative portion): −0.462 V
  Ep, less negative reduction peak (Pt-Phenantroline metal center): −0.058 V
[7]
  reduction by ascorbic acid (in words): faster reduction of the phenanthroline-bonded Pt unit
